The text below walks through data of patent publication US20090270371A1, “QUINOLINE DERIVATIVES USEFUL IN THE TREATMENT OF MGLUR5 RECEPTOR-MEDIATED DISORDERS” (priority 2005, published 2009).

T1 sequence (P31424 21-1203): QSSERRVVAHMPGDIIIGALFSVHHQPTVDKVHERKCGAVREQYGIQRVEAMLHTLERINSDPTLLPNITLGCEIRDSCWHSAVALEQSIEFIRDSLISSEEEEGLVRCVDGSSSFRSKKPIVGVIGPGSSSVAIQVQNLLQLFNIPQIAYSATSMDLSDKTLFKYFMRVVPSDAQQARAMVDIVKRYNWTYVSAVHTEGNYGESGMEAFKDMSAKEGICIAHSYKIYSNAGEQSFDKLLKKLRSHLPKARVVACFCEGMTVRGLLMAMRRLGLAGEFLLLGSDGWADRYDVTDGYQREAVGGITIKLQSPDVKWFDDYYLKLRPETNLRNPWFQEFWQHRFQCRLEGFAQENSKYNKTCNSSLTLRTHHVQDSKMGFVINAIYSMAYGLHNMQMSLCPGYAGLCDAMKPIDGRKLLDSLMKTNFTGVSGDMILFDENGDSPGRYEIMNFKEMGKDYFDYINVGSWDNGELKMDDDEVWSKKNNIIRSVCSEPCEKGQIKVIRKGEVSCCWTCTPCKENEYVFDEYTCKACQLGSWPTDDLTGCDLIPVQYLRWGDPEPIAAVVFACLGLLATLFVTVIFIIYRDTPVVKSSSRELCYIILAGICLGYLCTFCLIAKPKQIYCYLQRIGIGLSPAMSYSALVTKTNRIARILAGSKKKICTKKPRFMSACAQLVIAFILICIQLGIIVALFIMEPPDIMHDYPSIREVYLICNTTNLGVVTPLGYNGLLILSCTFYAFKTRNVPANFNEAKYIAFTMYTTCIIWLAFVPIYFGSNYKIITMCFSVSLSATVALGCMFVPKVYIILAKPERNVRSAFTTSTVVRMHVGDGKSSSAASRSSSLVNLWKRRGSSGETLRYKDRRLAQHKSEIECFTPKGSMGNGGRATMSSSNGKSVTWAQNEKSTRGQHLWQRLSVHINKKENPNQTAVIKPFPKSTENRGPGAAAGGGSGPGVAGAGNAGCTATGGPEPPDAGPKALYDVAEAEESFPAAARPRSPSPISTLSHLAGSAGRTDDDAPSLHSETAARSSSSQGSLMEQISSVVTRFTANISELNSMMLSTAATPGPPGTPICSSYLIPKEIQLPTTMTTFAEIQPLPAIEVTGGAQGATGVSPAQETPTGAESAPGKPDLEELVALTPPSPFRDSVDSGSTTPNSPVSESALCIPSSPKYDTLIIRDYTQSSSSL

The assay addresses T1, rat mGluR5 receptors (Rattus norvegicus, UniProt P31424).
T1 construct: rat cerebro-cortical membrane preparation was used; from tissue; host or cells: rat cerebral cortex membranes
The assay can be described thus: mGluR5 receptor binding test, rat cerebro-cortical membrane preparation, [3H]-M-MPEP. Particulars: affinity for rat mGluR5 receptors; [3H]-M-MPEP (2 nM) radioligand. In short, it runs like this:
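Radioligand binding used rat cerebro-cortical membranes with 2 nM [3H]-M-MPEP. Nonspecific binding was defined with 10 μM M-MPEP. The method follows a modification of a published procedure.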
`CC1CCN(c2c(S(=O)(=O)c3ccc(F)cc3)cnc3c(F)cccc23)CC1` [Compound 228] registered a Ki above 500 nM.
For the compound `COc1ccc(S(=O)(=O)c2cnc3c(F)cccc3c2N2CCC(C)CC2)cc1` [Compound 229], the Ki was 200 to 500 nM.
To `CC1CCN(c2c(S(=O)(=O)c3ccccc3)cnc3c(F)cccc23)CC1` [Compound 230] belongs above 500 nM; to `CC1CCN(c2c(S(=O)(=O)c3ccc(Cl)cc3)cnc3c(F)cccc23)CC1` [Compound 231], below 200 nM; to `CC1CCN(c2c(S(=O)(=O)c3cccc(F)c3)cnc3c(F)cccc23)CC1` [Compound 232], 200 to 500 nM.
To `Cc1ccc(S(=O)(=O)c2cnc3c(F)cccc3c2N2CCC(C)CC2)cc1F` [Compound 233] belongs below 200 nM; to `CC1CCN(c2c(S(=O)(=O)c3ccc(C#N)cc3)cnc3c(F)cccc23)CC1` [Compound 234], below 200 nM.
Compound `Cc1ccc(S(=O)(=O)c2cnc3c(F)cccc3c2N2CCC(C)CC2)cc1` [Compound 235] returned a Ki below 200 nM.
With `CC1CCN(c2c(S(=O)(=O)c3ccc(Cl)c(Cl)c3)cnc3c(F)cccc23)CC1` [Compound 236], the Ki was below 200 nM.
To `CC1CCN(c2c(S(=O)(=O)c3ccc(F)c(Cl)c3)cnc3c(F)cccc23)CC1` [Compound 237] belongs below 200 nM; to `CC1CCN(c2c(S(=O)(=O)c3ccc(F)c(F)c3)cnc3c(F)cccc23)CC1` [Compound 238], below 200 nM; to `COc1ccc2ncc(S(=O)(=O)c3cc(Cl)cc(Cl)c3)c(N3CCC(C)CC3)c2c1` [Compound 239], below 200 nM.
For `COc1ccc2ncc(S(=O)(=O)c3cc(F)cc(F)c3)c(N3CCC(C)CC3)c2c1` [Compound 240], the Ki was above 500 nM.
On to `COc1ccc2ncc(S(=O)(=O)c3ccc(F)cc3)c(N3CCC(C)CC3)c2c1` [Compound 241], for which the Ki was above 500 nM.
Regarding `COc1ccc2ncc(S(=O)(=O)c3ccc(OC)c(OC)c3)c(N3CCC(C)CC3)c2c1` [Compound 242], the inhibitory constant (Ki) was above 500 nM.
Under `COc1ccc2ncc(S(=O)(=O)c3cccc(F)c3)c(N3CCC(C)CC3)c2c1` [Compound 243] stands 200 to 500 nM; under `COc1cccc(S(=O)(=O)c2cnc3ccc(OC)cc3c2N2CCC(C)CC2)c1` [Compound 244], above 500 nM; under `COc1ccc2ncc(S(=O)(=O)c3ccc(OC)c(Cl)c3)c(N3CCC(C)CC3)c2c1` [Compound 245], above 500 nM.
`COc1ccc2ncc(S(=O)(=O)c3cccc(Cl)c3)c(N3CCC(C)CC3)c2c1` [Compound 246]: the Ki is above 500 nM.
With `COc1ccc2ncc(S(=O)(=O)c3ccc(C)c(F)c3)c(N3CCC(C)CC3)c2c1` [Compound 247], the Ki lay in the range of 200 to 500 nM.
Under `COc1ccc2ncc(S(=O)(=O)c3ccc(C)c(Cl)c3)c(N3CCC(C)CC3)c2c1` [Compound 248] stands below 200 nM; under `COc1ccc2ncc(S(=O)(=O)c3ccc(Cl)c(Cl)c3)c(N3CCC(C)CC3)c2c1` [Compound 249], below 200 nM.
Under `COc1ccc2ncc(S(=O)(=O)c3ccc(C)c(C)c3)c(N3CCC(C)CC3)c2c1` [Compound 250] stands 200 to 500 nM.
To `CC1CCN(c2c(S(=O)(=O)c3ccc(F)cc3)cnc3ccc(C#N)cc23)CC1` [Compound 252] belongs 200 to 500 nM.
The compound `CC1CCN(c2c(S(=O)(=O)c3ccc(Cl)cc3)cnc3c(Cl)ccc(Cl)c23)CC1` [Compound 253] yielded a Ki of 200 to 500 nM.
To `Cc1ccc2ncc(S(=O)(=O)c3ccccc3)c(N3CCOCC3)c2c1` [Compound 254] belongs below 200 nM.
To `Cc1ccc2ncc(S(=O)(=O)c3cc(F)cc(F)c3)c(N3CCOCC3)c2c1` [Compound 255] belongs above 500 nM; to `Cc1ccc2ncc(S(=O)(=O)c3cccc(C#N)c3)c(N3CCOCC3)c2c1` [Compound 256], 200 to 500 nM.
Compound `Cc1ccc2ncc(S(=O)(=O)c3ccc(F)cc3)c(N3CCOCC3)c2c1` [Compound 257] had a Ki above 500 nM.
Under `COc1ccc(S(=O)(=O)c2cnc3ccc(C)cc3c2N2CCOCC2)cc1` [Compound 258] stands above 500 nM; under `Cc1ccc2ncc(S(=O)(=O)c3cccc(F)c3)c(N3CCOCC3)c2c1` [Compound 259], above 500 nM; under `COc1cccc(S(=O)(=O)c2cnc3ccc(C)cc3c2N2CCOCC2)c1` [Compound 260], 200 to 500 nM.
For `COc1ccc(S(=O)(=O)c2cnc3ccc(C)cc3c2N2CCOCC2)cc1Cl` [Compound 261], the Ki is 200 to 500 nM.
The compound `Cc1ccc2ncc(S(=O)(=O)c3ccc(Cl)c(Cl)c3)c(N3CCOCC3)c2c1` [Compound 262] registered a Ki of 200 to 500 nM.
Under `Cc1ccc2ncc(S(=O)(=O)c3cccc(Cl)c3)c(N3CCOCC3)c2c1` [Compound 263] stands above 500 nM; under `Cc1ccc2ncc(S(=O)(=O)c3cc(Cl)cc(Cl)c3)c(N3CCOCC3)c2c1` [Compound 264], 200 to 500 nM; under `Cc1ccc2ncc(S(=O)(=O)c3ccc(C#N)cc3)c(N3CCOCC3)c2c1` [Compound 265], above 500 nM.
Under `Cc1ccc2ncc(S(=O)(=O)c3ccc(C)c(Cl)c3)c(N3CCOCC3)c2c1` [Compound 266] stands 200 to 500 nM.
On to `Cc1ccc2ncc(S(=O)(=O)c3ccc(C)c(F)c3)c(N3CCOCC3)c2c1` [Compound 267], for which the inhibition constant Ki was above 500 nM.
To `Cc1ccc2ncc(S(=O)(=O)c3ccc(F)c(F)c3)c(N3CCOCC3)c2c1` [Compound 268] belongs above 500 nM.
Under `COc1ccc2ncc(S(=O)(=O)c3ccccc3)c(N3CCOCC3)c2c1` [Compound 269] stands 200 to 500 nM; under `COc1ccc2ncc(S(=O)(=O)c3ccc(Cl)cc3)c(N3CCOCC3)c2c1` [Compound 270], below 200 nM.
`COc1ccc2ncc(S(=O)(=O)c3cc(Cl)cc(Cl)c3)c(N3CCOCC3)c2c1` [Compound 271] showed a Ki above 500 nM.
To `COc1ccc2ncc(S(=O)(=O)c3cc(F)cc(F)c3)c(N3CCOCC3)c2c1` [Compound 272] belongs above 500 nM; to `COc1ccc2ncc(S(=O)(=O)c3cccc(C#N)c3)c(N3CCOCC3)c2c1` [Compound 273], above 500 nM; to `COc1ccc2ncc(S(=O)(=O)c3cccc(Cl)c3)c(N3CCOCC3)c2c1` [Compound 274], above 500 nM.
Under `COc1ccc2ncc(S(=O)(=O)c3ccc(F)cc3)c(N3CCOCC3)c2c1` [Compound 275] stands above 500 nM.
Under `COc1ccc2ncc(S(=O)(=O)c3ccc(C)c(Cl)c3)c(N3CCOCC3)c2c1` [Compound 276] stands above 500 nM; under `COc1ccc2ncc(S(=O)(=O)c3ccc(OC)c(Cl)c3)c(N3CCOCC3)c2c1` [Compound 277], above 500 nM.
`COc1ccc2ncc(S(=O)(=O)c3ccc(Cl)c(Cl)c3)c(N3CCOCC3)c2c1` [Compound 278] yielded a Ki above 500 nM.
Under `O=S(=O)(c1ccccc1)c1cnc2ccc(F)cc2c1N1CCOCC1` [Compound 279] stands below 200 nM; under `O=S(=O)(c1cc(Cl)cc(Cl)c1)c1cnc2ccc(F)cc2c1N1CCOCC1` [Compound 280], above 500 nM.
To `N#Cc1cccc(S(=O)(=O)c2cnc3ccc(F)cc3c2N2CCOCC2)c1` [Compound 281] belongs above 500 nM; to `COc1ccc(S(=O)(=O)c2cnc3ccc(F)cc3c2N2CCOCC2)cc1` [Compound 282], above 500 nM.
To `COc1cccc(S(=O)(=O)c2cnc3ccc(F)cc3c2N2CCOCC2)c1` [Compound 283] belongs above 500 nM; to `COc1ccc(S(=O)(=O)c2cnc3ccc(F)cc3c2N2CCOCC2)cc1Cl` [Compound 284], above 500 nM.
In turn, `O=S(=O)(c1cccc(Cl)c1)c1cnc2ccc(F)cc2c1N1CCOCC1` [Compound 285] showed a Ki above 500 nM.
`O=S(=O)(c1ccc(Cl)c(Cl)c1)c1cnc2ccc(F)cc2c1N1CCOCC1` [Compound 286] returned a Ki of 200 to 500 nM.
Under `Cc1ccc(S(=O)(=O)c2cnc3ccc(F)cc3c2N2CCOCC2)cc1F` [Compound 287] stands above 500 nM; under `Cc1ccc(S(=O)(=O)c2cnc3ccc(F)cc3c2N2CCOCC2)cc1Cl` [Compound 288], 200 to 500 nM.
Compound `Cc1cc(C)cc(S(=O)(=O)c2cnc3ccc(F)cc3c2N2CCOCC2)c1` [Compound 289] had a Ki above 500 nM.
To `O=S(=O)(c1ccc(F)c(Cl)c1)c1cnc2ccc(F)cc2c1N1CCOCC1` [Compound 290] belongs 200 to 500 nM; to `O=S(=O)(c1ccccc1)c1cnc2ccc(Cl)cc2c1N1CCOCC1` [Compound 291], above 500 nM; to `Cc1ccc(S(=O)(=O)c2cnc3ccc(Cl)cc3c2N2CCOCC2)cc1` [Compound 292], below 200 nM.
To `O=S(=O)(c1cc(Cl)cc(Cl)c1)c1cnc2ccc(Cl)cc2c1N1CCOCC1` [Compound 293] belongs above 500 nM; to `O=S(=O)(c1cc(F)cc(F)c1)c1cnc2ccc(Cl)cc2c1N1CCOCC1` [Compound 294], above 500 nM; to `O=S(=O)(c1ccc(Cl)cc1)c1cnc2ccc(Cl)cc2c1N1CCOCC1` [Compound 295], above 500 nM.
Under `COc1cccc(S(=O)(=O)c2cnc3ccc(Cl)cc3c2N2CCOCC2)c1` [Compound 296] stands above 500 nM; under `O=S(=O)(c1cccc(Cl)c1)c1cnc2ccc(Cl)cc2c1N1CCOCC1` [Compound 297], above 500 nM; under `O=S(=O)(c1ccc(Cl)c(Cl)c1)c1cnc2ccc(Cl)cc2c1N1CCOCC1` [Compound 298], 200 to 500 nM.
As to `N#Cc1cccc(S(=O)(=O)c2cnc3ccc(Cl)cc3c2N2CCOCC2)c1` [Compound 299], the inhibitory constant (Ki) is above 500 nM.
In turn, `Cc1ccc(S(=O)(=O)c2cnc3ccc(Cl)cc3c2N2CCOCC2)cc1Cl` [Compound 300] had a Ki of 200 to 500 nM.
Compound `COc1ccc(S(=O)(=O)c2cnc3ccc(Cl)cc3c2N2CCOCC2)cc1Cl` [Compound 301] came in with a Ki above 500 nM.
Under `O=S(=O)(c1ccc(F)c(Cl)c1)c1cnc2ccc(Cl)cc2c1N1CCOCC1` [Compound 302] stands above 500 nM.
Under `Cc1ccc(S(=O)(=O)c2cnc3cc(F)ccc3c2N2CCOCC2)cc1` [Compound 303] stands above 500 nM.
